Assay results: PubChem BioAssay AID1996
Values after ≈ are worked out from the molar mass of the structure shown.

Details: buffer; pH 7.4; 200.0 µM

Row | Compound | solubility kinetic [µg/mL]
1 | CC(C)(C)c1ccc(NC(=O)Nc2ccc3ccccc3n2)cc1 | < 0.2
2 | CCc1ccc(S(=O)(=O)NCc2cccs2)cc1 | 35.6 (≈ 127 µM)
3 | N#Cc1ccc(S(=O)(=O)NC2CCN(Cc3ccccc3)CC2)cc1 | 42.5 (≈ 120 µM)
4 | COc1ccc(NC(=O)CN(c2c(C)cccc2C)S(C)(=O)=O)cc1 | 48.1 (≈ 133 µM)
5 | Cc1noc(C)c1C(=O)Nc1nc2ccc(Cl)cc2s1 | 2.1 (≈ 6.82 µM)
6 | NS(=O)(=O)c1ccc(NC(=O)CN2CCCc3ccccc32)cc1 | 19.1 (≈ 55.3 µM)
7 | O=C(COc1ccccc1)Nc1ccc(NC(=O)c2ccco2)cc1 | 2.6 (≈ 7.73 µM)
8 | O=C(CN1CCOCC1)NNC(=S)Nc1ccc(Cl)cc1 | > 49.3
9 | COCCNC(=O)C(NC(=O)C1CCC(C)CC1)C(C)C (stereo not drawn) | > 44.8
10 | CN(NC1OC(=O)c2ccccc21)c1ccccc1[N+](=O)[O-] (stereo not drawn) | > 44.9
11 | Cn1c(N)c(C(=O)COC(=O)C2=NNC(=O)CC2)c(=O)n(C)c1=O | > 50.6
12 | CC(=O)N1CC(C(=O)Nc2ccc3c(c2)OCO3)Oc2ccccc21 (stereo not drawn) | > 51.1
13 | CC12CCC(C(=O)NCc3ccc(F)cc3)(OC1=O)C2(C)C (stereo not drawn) | 44.2 (≈ 145 µM)
14 | O=C(COC(=O)Cc1ccccc1F)NC(=O)NC1CCCC1 | 42.5 (≈ 132 µM)
15 | CC(=O)NCCc1nc2ccccc2n1Cc1cccc(C)c1 | > 46.1
16 | Cc1ccc(S(=O)(=O)CC(=O)N2CC(C)OC(C)C2)cc1 (stereo not drawn) | > 46.7
17 | Cc1ccc(S(=O)(=O)N2C(=O)CCC2C(N)=O)cc1 (stereo not drawn) | > 42.3
18 | COc1cc(Cl)c(S(=O)(=O)N2CCCC2)cc1Cl | 42.1 (≈ 136 µM)
19 | CC(C)N(Cc1ccccc1)C(=O)c1ccc2c(c1)OCO2 | 42.8 (≈ 144 µM)
20 | COC(=O)CC(CP(=O)([O-])CN(C)C=O)C(=O)OC (stereo not drawn) | 27.9
21 | COc1ccc(OC)c2c(C)cc(N3CCCCCC3)nc12 | 6.3 (≈ 21 µM)
22 | O=c1c2ccccc2[nH]c(=S)n1-c1ccc2c(c1)OCCO2 | 4.5 (≈ 14.4 µM)
23 | CC(CO)NCC12CC3CC(CC(C3)C1)C2.Cl (stereo not drawn) | > 39
24 | CC(C)(C)NS(=O)(=O)c1ccc2[nH]c3c(c2c1)CCCCC3 | 8.8 (≈ 27.5 µM)

Row | Compound | solubility kinetic [µg/mL]
25 | Cc1cc(C)cc(NC(=O)c2cccnc2)c1 | > 33.9
26 | CC(C)(C)n1cnc2cc(NCc3ccccc3O)ccc21 | 34.5 (≈ 117 µM)
27 | Cc1ccsc1CN(C)CC(=O)NCC(=O)Nc1ccc(F)c(F)c1F | 10.8 (≈ 28 µM)
28 | NS(=O)(=O)c1ccc(NC(=O)c2c(F)cccc2Cl)cc1 | 13.3 (≈ 40.5 µM)
29 | O=C(NCCN1CCOCC1)c1cc2ccccc2oc1=O | > 45.3
30 | NC(=O)c1ccccc1OCC(=O)Nc1ccc2c(c1)CCC2 | 9.5 (≈ 30.6 µM)
31 | CSc1ccccc1NC(=O)c1csc(C)c1 | 30 (≈ 114 µM)
32 | Cc1sc2ncnc(SCc3ccc(C(=O)O)cc3)c2c1C | > 49.6
33 | Cc1ccc(CNS(=O)(=O)c2c(C)[nH]c(=O)[nH]c2=O)cc1 | > 46.4
34 | Cc1ccc(C(=O)Nc2ccc(F)c(S(=O)(=O)N3CCOCC3)c2)s1 | 5.3 (≈ 13.8 µM)
35 | COc1cccc(CN2CCN(Cc3cccc(F)c3)CC2)c1.O=C(O)C(=O)O | 46.5
36 | COc1ccc2[nH]c(=O)c(CNc3ccc(C)cc3C)cc2c1 | 41.5 (≈ 135 µM)
37 | CC1CCN(S(=O)(=O)c2ccc(NC(=O)C3CC3)cc2)CC1 | 37.2 (≈ 115 µM)
38 | COc1ccc(-n2c(-c3ccccc3)c[n+]3c2CCC3)cc1.[Br-] | > 55.7
39 | N/C(=N\OC(=O)c1ccc([N+](=O)[O-])cc1Cl)c1ccccn1 | 12.8 (≈ 39.9 µM)
40 | Cc1cc(NC(=O)c2cc(-c3ccc(O)cc3)on2)no1 | 0.5 (≈ 1.75 µM)
41 | CCOC(=O)C1CCN(C/C=C/c2ccccc2[N+](=O)[O-])CC1 | 39.3 (≈ 123 µM)
42 | Cc1ccc(/C=C2\C(=O)NC(=S)N(c3cccc(F)c3)C2=O)o1 | 43.1 (≈ 130 µM)
43 | CN(Cc1ccccc1F)C(=O)c1sccc1-c1ccccc1 | 14 (≈ 43 µM)
44 | Cc1cccc(NC(=O)CC2(CC(=O)O)CCCC2)c1 | 41.2 (≈ 150 µM)
45 | Cc1ccc(S(=O)(=O)N(C)CC(=O)N2CCCCCC2)cc1 | 48.4 (≈ 149 µM)
46 | CCCN1C(=O)c2ccccc2NC1c1ccc(O)c(OCC)c1 (stereo not drawn) | > 49
47 | CCN(CC)C(=O)CN1CCC(c2nc3cc(C)c(C)cc3[nH]2)CC1 | > 51.4
48 | CC1CCC2(CC1)NC(=O)N(CC(=O)Nc1ccc(C(N)=O)cc1)C2=O (stereo not drawn) | > 53.8

Row | Compound | solubility kinetic [µg/mL]
49 | O=C1Cc2ccccc2C(c2c(Cl)cccc2Cl)N1 (stereo not drawn) | < 0.6
50 | Cc1ccc2nc(CCc3nc4ccc(C)cc4[nH]3)[nH]c2c1.Cl | 8.9
51 | Cc1nc(CSc2ccc(Cl)cc2)cs1 | 6.9 (≈ 27 µM)
52 | O=C(Nc1cccnc1)C1CC(=O)N(c2ccc(F)cc2)C1 (stereo not drawn) | > 44.9
53 | CCCCSc1nc(O)cc(=O)n1CC | 33.4 (≈ 146 µM)
54 | O=C(NCCCn1ccnc1)c1cc(C(=O)C2CCCCC2)c[nH]1 | 49 (≈ 149 µM)
55 | COCC(=O)OCc1cc2cccc(C)c2[nH]c1=O | 38.9 (≈ 149 µM)
56 | O=C1NC(Cc2c[nH]c3ccccc23)C(=O)N1Cc1ccccc1 (stereo not drawn) | > 47.9
57 | NS(=O)(=O)c1ccc(CNC(=O)CSc2nc3ccc(Cl)cc3[nH]2)cc1 | 10.3 (≈ 25.1 µM)
58 | C#CC(C)(C)NC(=O)c1ccc(-c2ccccc2F)cc1 | < 0.6
59 | Cc1nc([N+](=O)[O-])c(C(=O)O)n1C | > 27.8
60 | FC(F)(F)Oc1ccc(NC2=NCCCS2)cc1 | 41.4 (≈ 150 µM)
61 | CC(=O)c1cccc(NC(=O)c2nc(-c3ccccc3)oc2C)c1 | 12.1 (≈ 37.8 µM)
62 | COC(=O)c1ccsc1NC(=O)c1ccco1 | 3.2 (≈ 12.7 µM)
63 | CC(OC(=O)Cn1ccccc1=O)C(=O)Nc1cc(Cl)cc(Cl)c1 (stereo not drawn) | > 55.4
64 | O=[N+]([O-])c1ccc2c(c1N1CCCCC1)=NC1(CCCCC1)[N+]=2[O-] | 47.1 (≈ 143 µM)
65 | Cc1c(Cl)cccc1NC(=O)C1CC2CCC1C2 (stereo not drawn) | 1.5 (≈ 5.69 µM)
66 | N#CC1(CCCN2CCCCC2)c2ccccc2CCc2ccccc21.O=C(O)C(=O)O | > 65.2
67 | Cc1ccc(N(Cc2ccccc2)C(=O)CN2C(=O)NC3(CCCC3)C2=O)cc1 | > 58.7
68 | CCOc1ccc2[nH]cc(-c3csc(N)n3)c2c1 | 20.5 (≈ 79 µM)
69 | COc1cc(CO)ccc1OCc1ccc(Cl)nc1 | > 42
70 | CC(=O)Nc1ccc(CC#N)cc1 | > 26.1
71 | COc1ccc(C)cc1S(=O)(=O)Nc1ccncc1 | > 41.7
72 | CCOc1ccc(NCc2cc3cc(OC)ccc3[nH]c2=O)cc1 | 2.1 (≈ 6.47 µM)

Row | Compound | solubility kinetic [µg/mL]
73 | O=[N+]([O-])c1ccc(SCc2ccco2)cc1N1CCOCC1 | 13.2 (≈ 41.2 µM)
74 | CC1(C)CC(=O)N(c2ccc(Cl)c(Cl)c2)C(=O)C1 | 9.6 (≈ 33.5 µM)
75 | CN(C)c1ccc(/C=C/c2nc3ccccc3c(=O)n2CCO)cc1 | 40.7 (≈ 121 µM)
76 | Cn1ccnc1SCC(=O)c1ccc(C#N)cc1 | > 38.6
77 | COc1ccc(Cl)cc1NC(=O)CCN1CCOCC1 | > 44.8
78 | CCOC(=O)c1cc2c(=O)[nH]ccc2nc1C(F)(F)F | > 42.9
79 | COc1ccc(Cl)cc1C(=O)Nc1ccc(NC(=O)C(C)C)cc1 | 0.5 (≈ 1.44 µM)
80 | COc1cc2cc(C(=O)NCCc3ccccc3)[nH]c2cc1OC | 1 (≈ 3.08 µM)
81 | Cn1c(=O)c2ccccc2n(CC(=O)Nc2ccc3c(c2)OCCO3)c1=O | 4.6 (≈ 12.5 µM)
82 | CCOc1ccc(C(=O)NC(C)CCc2ccccc2)cc1 (stereo not drawn) | 2.5 (≈ 8.41 µM)
83 | COC(=O)C(Cc1ccccc1)NC(=O)CCc1c[nH]c2ccccc12 (stereo not drawn) | > 52.6
84 | O=C(Nc1ccc(Cl)cc1)Nc1ccon1 | 26.7 (≈ 112 µM)
85 | Cc1ccc(S(=O)(=O)N(C)C)cc1NC(=O)Nc1ccccc1 | < 0.2
86 | CC1CCN(C(=O)COC(=O)/C=C/c2ccc([N+](=O)[O-])cc2)CC1 | 5.7 (≈ 17.2 µM)
87 | N#C/C(=C\Nc1ccc(F)c(Cl)c1)S(=O)(=O)c1ccccn1 | 42 (≈ 124 µM)
88 | COc1ccc(Cl)cc1NC(=O)CN1C(=O)NC(Cc2c[nH]c3ccccc23)C1=O (stereo not drawn) | 6.7 (≈ 15.7 µM)
89 | O=C(Nc1ccc(Cl)cc1)C1CCN(C(=O)c2cccs2)CC1 | 12.9 (≈ 37 µM)
90 | COc1cc(OC)cc(C(=O)N[C@H](C(=O)OCC(=O)Nc2ccc3c(c2)OCO3)C(C)C)c1 | 21.2 (≈ 46.2 µM)
91 | O=[N+]([O-])c1cccc(-c2cc3ccccc3[nH]2)c1 | < 0.3
92 | O=S(=O)(NCCN1CCOCC1)c1cc(Cl)ccc1Cl | 41.6 (≈ 123 µM)
93 | OCCNc1nc(Cl)nc(NCc2ccco2)n1 | > 40.5
94 | Cc1cc(C)c(S(=O)(=O)c2ccccc2C(C)C)c(=O)[nH]1 | 7.2 (≈ 23.6 µM)
95 | COCCNc1nc2nonc2nc1N(C)Cc1ccc(C)cc1 | > 49.3
96 | CCN(CC)S(=O)(=O)c1ccc(N)cc1 | > 34.2

Row | Compound | solubility kinetic [µg/mL]
97 | CCC(NC(=S)NC1CCCCC1)c1ccc(C(C)C)cc1 (stereo not drawn) | 1.6 (≈ 5.02 µM)
98 | c1ccc(-c2csc(NC3CCCCC3)n2)cc1 | 4.1 (≈ 15.9 µM)
99 | CN(C(=O)c1ccco1)c1ccccc1C(=O)O | > 36.8
100 | O=C(OCc1nc2ccccc2s1)c1ccco1 | 35.4 (≈ 137 µM)
101 | C/C=C/c1ccc(OCCCCN2CCC(C)CC2)c(OC)c1 | 33.9 (≈ 107 µM)
102 | O=C(NC(=S)Nc1cccc2ncccc12)c1ccco1 | 13.3 (≈ 44.7 µM)
103 | CC1(C)NC(=O)N(Cc2cc(=O)n3ccsc3n2)C1=O | > 43.8
104 | Cc1c(NCc2ccncc2)cccc1C(=O)O | > 36.3
105 | O=C(O)c1ccccc1-n1cccc1C(=O)O | > 34.7
106 | Cc1oc(-c2ccc(Cl)cc2)cc1C(=O)NC1CCN(Cc2ccccc2)CC1 | 1 (≈ 2.45 µM)
107 | CC1CCN(C(=O)c2cc(-c3ccc4c(c3)OCO4)on2)CC1 | 28.2 (≈ 89.7 µM)
108 | COc1ccc(N2CCN(C(=S)Nc3ccccc3)CC2)cc1 | 1.3 (≈ 3.97 µM)
109 | CC1CCN(C(=O)COC(=O)c2nn(C)c(=O)c3ccccc23)CC1 | > 51.5
110 | O=C(NCc1cccc(C(F)(F)F)c1)c1ccc2c(c1)OCCO2 | 6.1 (≈ 18.1 µM)
111 | CC(=O)c1c2c3c(cccc3n(C)c1=O)C(=O)c1ccccc1-2 | < 0.6
112 | O=C(NCc1ccc2c(c1)OCO2)c1ccccc1 | 38 (≈ 149 µM)
113 | Cc1ccc(C(=O)C2CCN(C(=S)NCC3CCCO3)CC2)cc1 (stereo not drawn) | 46.7 (≈ 135 µM)
114 | N#Cc1c(N2CCNCC2)nc(-c2ccco2)c2c1CCCC2 | > 46.3
115 | O=C(O)/C=C/C(=O)Nc1ccc(OCc2ccccc2)cc1 | > 44.6
116 | Cc1ccc(NC(=O)C2=C(C(=O)O)CCCC2)cc1Br | 33.3 (≈ 98.5 µM)
117 | CCOC(=O)Nc1ccc(OC)c([N+](=O)[O-])c1 | > 36
118 | CN=CC1=C(O)C(C(=O)OC)C(C)(C)CC1=O (stereo not drawn) | > 35.9
